Laboratory results published in US20230084927A1, “GLUCOSE UPTAKE INHIBITORS AND USES THEREOF” (METABOMED LTD., priority 2019, published 2023).
Like-named read-outs stand apart in the source and are kept apart here.

How the values were obtained:
[1] = target: T1, GLUT1 transporter (DLD1 cells) (Homo sapiens, UniProt P11166); assay: Glucose transporter selectivity assay; assay type: cell-based; settings: 5 mM glucose, 1 uM Rotenone, 15 min, read-out: IC50 (nM) DLD1-WT Glust1
T1 construct: DLD1 cells for GLUT1 transporter; endogenous in cells; host or cells: DLD1 (DLD1-WT)
T1 sequence (P11166 whole entry): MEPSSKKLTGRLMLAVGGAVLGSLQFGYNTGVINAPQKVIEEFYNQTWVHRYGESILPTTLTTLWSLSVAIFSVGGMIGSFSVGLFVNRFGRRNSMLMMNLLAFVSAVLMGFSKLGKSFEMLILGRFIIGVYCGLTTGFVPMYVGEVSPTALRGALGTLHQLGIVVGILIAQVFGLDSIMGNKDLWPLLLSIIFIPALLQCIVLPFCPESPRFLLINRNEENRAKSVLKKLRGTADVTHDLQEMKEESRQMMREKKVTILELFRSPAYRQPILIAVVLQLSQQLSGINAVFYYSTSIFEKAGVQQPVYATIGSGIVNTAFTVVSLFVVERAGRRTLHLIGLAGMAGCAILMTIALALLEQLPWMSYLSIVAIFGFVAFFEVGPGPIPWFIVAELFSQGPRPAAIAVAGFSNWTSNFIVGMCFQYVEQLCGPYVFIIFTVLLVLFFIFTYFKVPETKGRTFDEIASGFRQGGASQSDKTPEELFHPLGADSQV
Procedure: (§1) Glucose transporter selectivity assays were done as described by Siebeneicher et al (ChemMedChem 2016, 11, 1-12) with the following adjustments; DLD1 cells for GLUT1 transporter, DLD1-GLUT1−/− cells (Horizon discovery) for GLUT3 transporter and DLD1-GLUT1−/− overexpressing hGLUT2 cells for GLUT2 transporter. The cells were plated overnight in 96-well plate at 80% confluency in starvation medium (DMEM without glucose, 0.5 mM glutamine, 1 mM pyruvate and 1% FBS). The cells were then pretreated for 30 min with 1 uM Rotenone and the inhibitors (compound 145) at different concentrations. The assay was initiated by adding glucose (5 mM for DLD1 cells, 10 mM for DLD1-Glut1−/−) or fructose (10 mM for DLD1-Glut1−/−(hGLUT2) cells) and the plates were incubated for 15 min at 37° C. At the end of the incubation Cell-titer Glo was added to the wells and luminescence was measured. The inhibition IC50 was calculated using Prism software.

[2] = target: T2, GLUT2 transporter (DLD1-GLUT1−/− overexpressing hGLUT2 cells) (Homo sapiens, UniProt P11168); assay: Glucose transporter selectivity assay; assay type: cell-based; settings: 10 mM fructose, 1 uM Rotenone, 15 min, read-out: IC50 (nM) DLD-Glut1−/− (Glut2) Glut2
T2 construct: expressed in transfected cells; host or cells: DLD1-GLUT1−/−
T2 sequence (P11168 whole entry): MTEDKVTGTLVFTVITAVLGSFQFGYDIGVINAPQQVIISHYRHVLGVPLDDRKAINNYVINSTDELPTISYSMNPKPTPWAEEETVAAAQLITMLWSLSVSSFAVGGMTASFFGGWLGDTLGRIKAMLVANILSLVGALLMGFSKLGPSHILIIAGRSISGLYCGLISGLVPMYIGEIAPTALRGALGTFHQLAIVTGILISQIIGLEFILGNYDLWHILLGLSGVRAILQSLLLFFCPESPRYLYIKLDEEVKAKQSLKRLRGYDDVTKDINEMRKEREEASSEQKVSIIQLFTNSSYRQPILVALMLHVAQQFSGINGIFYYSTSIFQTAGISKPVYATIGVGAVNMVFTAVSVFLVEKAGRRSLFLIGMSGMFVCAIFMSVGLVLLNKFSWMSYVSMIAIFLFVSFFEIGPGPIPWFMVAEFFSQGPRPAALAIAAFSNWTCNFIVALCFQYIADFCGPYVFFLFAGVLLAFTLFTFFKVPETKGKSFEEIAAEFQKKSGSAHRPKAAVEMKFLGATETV
Procedure: as §1

[3] = target: T3, GLUT3 transporter (DLD1-GLUT1−/− cells) (Homo sapiens, UniProt P11169); assay: Glucose transporter selectivity assay; assay type: cell-based; settings: 10 mM glucose, 1 uM Rotenone, 15 min, read-out: IC50 (nM) DLD-Glut1−/− Glut3
T3 construct: DLD1-GLUT1−/− cells (Horizon discovery) for GLUT3 transporter; host or cells: DLD1-GLUT1−/−
T3 sequence (P11169 whole entry): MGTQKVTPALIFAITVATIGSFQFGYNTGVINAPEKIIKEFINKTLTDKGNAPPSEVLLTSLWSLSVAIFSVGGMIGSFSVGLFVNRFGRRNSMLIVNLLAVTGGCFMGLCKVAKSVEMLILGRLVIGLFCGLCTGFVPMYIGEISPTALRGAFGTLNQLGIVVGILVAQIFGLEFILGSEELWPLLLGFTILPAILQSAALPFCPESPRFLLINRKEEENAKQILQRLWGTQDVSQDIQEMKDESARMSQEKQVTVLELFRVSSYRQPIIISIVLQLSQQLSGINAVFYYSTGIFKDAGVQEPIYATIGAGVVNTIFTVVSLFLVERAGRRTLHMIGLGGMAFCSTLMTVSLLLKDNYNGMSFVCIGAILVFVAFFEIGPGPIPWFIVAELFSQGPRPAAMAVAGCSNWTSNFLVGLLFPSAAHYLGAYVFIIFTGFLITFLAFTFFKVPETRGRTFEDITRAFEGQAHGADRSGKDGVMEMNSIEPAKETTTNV
Procedure: as §1

[4] = test system: ACHN SDHB −/− (SDHB CRISPRed out); assay: Cell viability in SDH-deficient/proficient isogenic pairs; assay type: cell-based
Procedure: (§2) The cells were grown in DMEM F12 supplemented with 1 mM Glutamine+3% FBS were treated with different concentrations of the indicated compounds. Cell viability was determined 72 hours later by CellTiter Glue reagent (Promega), the luminescence was measured with ClarioStar reader (BMG) and the EC50s were calculated by Prism. Murine SDHB-WT/KO, HRAS transformed isogenic pair (FIG. 12A); UOK269, Human Tumor-derived SDHB-deficient RCC in their WT counterpart with re-expression of SDHB (FIG. 12B); and ACHN, RCC cells, and their SDHB-KO (SDHB CRISPRed out) isogenic cells (FIG. 12C).

ACHN WT, RCC cells = assay: as above; assay type: cell-based
Procedure: as §2

[5] = test system: SDH-KO, Murine HRAS-transformed, SDHB-deficient cells; assay: Toxicity assay with or without rotenone; assay type: cell-based; settings: Mus musculus, 72 hours
Procedure: (§3) Toxicity assay: Cells were growing in 96 well plates in DMEM F12 with 17 mM glucose, 0.5 mM Sodium Pyruvate, 1 mM Glutamine and 3% FBS. The cells were treated with the indicated compounds (10 different concentrations) with or without 25 nM rotenone. Viability was determined after 72 hours of treatment using CellTiter Glo reagent (Promega). EC50 was calculated using Prism software.

[6] = test system: THP1 (Acute Monocytic Leukemia); assay: Toxicity assay with or without rotenone; assay type: cell-based; settings: Homo sapiens, THP-1, 72 hours
Procedure: as §3

[7] = test system: KG1 (Acute Myelogenous Leukemia); assay: Toxicity assay with or without rotenone; assay type: cell-based; settings: 72 hours
Procedure: as §3

OV-90 (Ovarian cancer) = assay: Toxicity assay with or without rotenone; assay type: cell-based; settings: Homo sapiens, 72 hours
Procedure: as §3

[8] = test system: SDH-WT, Murine HRAS-transformed cells; assay: Toxicity assay with or without rotenone; assay type: cell-based; settings: Mus musculus, 72 hours
Procedure: as §3

[9] = test system: m+3 lactate secretion (glycolysis) in SDH-KO cells; assay: Glycolysis inhibition (IC50 Lactate m+3); assay type: cell-based; settings: 1 h, 25 mM 13C-glucose, one hour
Procedure: (§4) Glycolysis Inhibition (IC50 Lactate m+3)
(§5) Cell were plated in DMEM, 25 mM Glucose, 1 mM Pyruvate, 1 mM Glutamine and 10% Dialyzed serum in 96 well plates in triplicates. The day after the medium was replaced to fresh medium with 25 mM ^13C-glucose and treated with different concentrations of the compounds as indicated. One hour later the medium was collected and the level of m+3 lactate was determined by LC-MS. The IC50 of inhibition of m+3 lactate secretion into the medium was calculated with Prism.

[10] = test system: m+3 lactate secretion (glycolysis) in SDH-WT cells; assay: Glycolysis inhibition (IC50 Lactate m+3); assay type: cell-based; settings: 1 h, 25 mM 13C-glucose, one hour
Procedure: as §4, §5

[11] = test system: 2-DeoxyGlucose phosphorylation in murine SDH-WT cells; assay: 2 DG phosphorylation assay; assay type: cell-based; settings: Mus musculus, 0.25 h, 15 min, LC-MS
Procedure: IC50 of compound 145 and GluT1 inhibitor […] in a 2 DG phosphorylation assay was done using murine SDH-WT cells. The cells were treated for 15 min with the indicated compound at different concentrations in the presence of 2 DG. 2 DG phosphorylation was determined by LC-MS analysis and the inhibition IC50 was determined by Prism software.

UOK269 (SDHB-def.) RCC = assay: Cell viability in SDH-deficient/proficient isogenic pairs; assay type: cell-based, Human
Procedure: as §2

[12] = test system: UOK269-WT (re-expression of SDHB); assay: as above; assay type: cell-based, Human
Procedure: as §2

[13] = Homo sapiens, cancer cells, 72 hours
[14] = with 25 nM rotenone, read-out: EC50 (nM) with Rotenone
[15] = without rotenone, read-out: EC50
[16] = Homo sapiens, tumor-derived, 72 hours

CC1(C)Cc2nc3sc4c(NCCc5ccc6[nH]cnc6c5)ncnc4c3cc2CO1 [Compound 145] gave an IC50 [1] of 19 nM, an IC50 [2] of 14 nM and an IC50 [3] of 2 nM. For the same compound, the “Ratio BAY-876/COMP 145” value [4] was 30, the EC50 [4, 13] was 8.4 nM and the “Ratio BAY-876/COMP 145” value (ACHN WT, RCC cells) was 1.7. For the same compound, the EC50 (ACHN WT, RCC cells; [13]) was 13800 nM, the EC50 [5, 14] was 3 nM and the EC50 [5, 15] was 3 nM. For the same compound, the EC50 ([6]; THP1, with 25 nM rotenone, read-out: EC50 (nM) with Rotenone) was 16 nM, the EC50 ([6]; THP1, without rotenone, read-out: EC50) was 1100 nM and the EC50 ([7]; KG1, with 25 nM rotenone, read-out: EC50 (nM) with Rotenone) was 16 nM. For the same compound, the EC50 ([7]; KG1, without rotenone, read-out: EC50) was 3200 nM, the EC50 (OV-90 (Ovarian cancer); OV-90, with 25 nM rotenone, read-out: EC50 (nM) with Rotenone) was 15 nM and the EC50 (OV-90 (Ovarian cancer); OV-90, without rotenone, read-out: EC50) was 825 nM. For the same compound, the EC50 [8, 14] was 3 nM, the EC50 [8, 15] was 210 nM and the IC50 [9] was 6.1 nM. For the same compound, the IC50 [10] was 1.7 nM, the IC50 [11] was 9.7 nM and the “Ratio BAY-876/COMP 145” value (UOK269 (SDHB-def.) RCC) was 8.8. For the same compound, the EC50 (UOK269 (SDHB-def.) RCC; [16]) was 1.7 nM, the “Ratio BAY-876/COMP 145” value [12] was 2.9 and the EC50 [12, 16] was 1830 nM.
